Source: the NIST ThermoML archive (doi:10.1021/je800355e)
“And” between values parts separate entries of the source, which are not always exact repeats. Equal values may be shown once. Numbers after ± are expanded uncertainties.

Assay: activity coefficient (dimensionless); of the first substance listed, at infinite dilution; xn = mol fraction of the nth substance listed
Conditions: 101 kPa, Liquid, x1 = 0

Structure (SMILES) | activity coefficient (293.15 K, Chromatography) | activity coefficient (313.15 K, Chromatography) | activity coefficient (333.15 K, Chromatography) | activity coefficient (353.15 K, Chromatography) | activity coefficient (298.15 K, Chromatography) | activity coefficient (298.15 K) | activity coefficient (313.15 K) | activity coefficient (333.15 K) | activity coefficient (353.15 K)
CC(C)CO [2-methyl-1-propanol] + CCCCCC[n+]1ccn(C)c1.O=S(=O)([N-]S(=O)(=O)C(F)(F)F)C(F)(F)F | 2.39 and 2.44 | 1.88 and 1.87 | 1.49 and 1.52 | 1.3 ± 0.1 |  |  |  |  | 
CC(C)CO [2-methyl-1-propanol] + CCCCn1cc[n+](C)c1.COS(=O)(=O)[O-] |  | 1.29 ± 0.11 | 1.28 ± 0.1 | 1.12 ± 0.09 | 1.44 ± 0.12 |  |  |  | 
CC(C)CO [2-methyl-1-propanol] + CCCCn1cc[n+](C)c1.F[P-](F)(F)(F)(F)F | 8.39 ± 0.57 | 5.74 ± 0.39 | 4.23 ± 0.29 | 3.23 ± 0.22 |  |  |  |  | 
CC(C)(C)O [2-methylpropan-2-ol] + CCCCCC[n+]1ccn(C)c1.O=S(=O)([N-]S(=O)(=O)C(F)(F)F)C(F)(F)F | 1.68 and 1.66 | 1.4 and 1.35 | 1.15 and 1.16 | 1.04 and 1.03 |  |  |  |  | 
CC(C)(C)O [2-methylpropan-2-ol] + CCCCn1cc[n+](C)c1.COS(=O)(=O)[O-] |  | 1.27 ± 0.1 | 1.19 ± 0.1 | 1.22 ± 0.1 | 1.38 ± 0.11 |  |  |  | 
CC(C)(C)O [2-methylpropan-2-ol] + CCCCn1cc[n+](C)c1.F[P-](F)(F)(F)(F)F | 4.83 ± 0.33 | 3.68 ± 0.25 | 2.97 ± 0.2 | 2.45 ± 0.17 |  |  |  |  | 
CCCCO [butan-1-ol] + CCCCCC[n+]1ccn(C)c1.O=S(=O)([N-]S(=O)(=O)C(F)(F)F)C(F)(F)F | 2.5 ± 0.19 | 2.02 ± 0.16 | 1.63 ± 0.12 | 1.33 ± 0.1 |  |  |  |  | 
CCCCO [butan-1-ol] + CCCCn1cc[n+](C)c1.COS(=O)(=O)[O-] |  |  |  |  |  | 1.68 ± 0.14 | 1.44 ± 0.11 | 1.37 ± 0.1 | 1.21 ± 0.08
CCCCO [butan-1-ol] + CCCCn1cc[n+](C)c1.F[P-](F)(F)(F)(F)F | 8.17 ± 0.56 | 5.9 ± 0.4 | 4.49 ± 0.31 | 3.43 ± 0.23 |  |  |  |  | 
CCC(C)O (stereo unspecified) [butan-2-ol] + CCCCCC[n+]1ccn(C)c1.O=S(=O)([N-]S(=O)(=O)C(F)(F)F)C(F)(F)F | 2.03 ± 0.16 | 1.67 and 1.65 | 1.37 and 1.38 | 1.2 and 1.21 |  |  |  |  | 
CCC(C)O (stereo unspecified) [butan-2-ol] + CCCCn1cc[n+](C)c1.COS(=O)(=O)[O-] |  | 1.31 ± 0.11 | 1.27 ± 0.1 | 1.21 ± 0.1 | 1.45 ± 0.12 |  |  |  | 
CCC(C)O (stereo unspecified) [butan-2-ol] + CCCCn1cc[n+](C)c1.F[P-](F)(F)(F)(F)F | 6.47 ± 0.44 | 4.8 ± 0.33 | 3.69 ± 0.25 | 2.87 ± 0.2 |  |  |  |  | 
CCO [ethanol] + CCCCCC[n+]1ccn(C)c1.O=S(=O)([N-]S(=O)(=O)C(F)(F)F)C(F)(F)F | 1.85 and 1.82 | 1.49 and 1.47 | 1.24 and 1.23 | 1.05 and 1.03 |  |  |  |  | 
CCO [ethanol] + CCCCn1cc[n+](C)c1.COS(=O)(=O)[O-] |  | 0.61 ± 0.05 | 0.62 ± 0.05 | 0.59 ± 0.05 | 0.64 ± 0.05 |  |  |  | 
CCO [ethanol] + CCCCn1cc[n+](C)c1.F[P-](F)(F)(F)(F)F | 3.81 ± 0.26 | 2.94 ± 0.2 | 2.32 ± 0.16 | 1.85 ± 0.12 |  |  |  |  | 
CO [methanol] + CCCCCC[n+]1ccn(C)c1.O=S(=O)([N-]S(=O)(=O)C(F)(F)F)C(F)(F)F | 1.54 and 1.5 | 1.27 and 1.26 | 1.08 and 1.05 | 0.93 and 0.91 |  |  |  |  | 
CO [methanol] + CCCCn1cc[n+](C)c1.COS(=O)(=O)[O-] |  | 0.36 ± 0.04 | 0.33 ± 0.04 | 0.38 ± 0.04 | 0.39 ± 0.04 |  |  |  | 
CO [methanol] + CCCCn1cc[n+](C)c1.F[P-](F)(F)(F)(F)F | 2.59 ± 0.18 | 2.06 ± 0.14 | 1.67 ± 0.11 | 1.36 ± 0.09 |  |  |  |  | 
CCCO [propan-1-ol] + CCCCCC[n+]1ccn(C)c1.O=S(=O)([N-]S(=O)(=O)C(F)(F)F)C(F)(F)F | 2.08 and 2.09 | 1.68 and 1.65 | 1.38 ± 0.1 | 1.19 and 1.18 |  |  |  |  | 
CCCO [propan-1-ol] + CCCCn1cc[n+](C)c1.COS(=O)(=O)[O-] |  | 0.88 ± 0.07 | 0.89 ± 0.07 | 0.82 ± 0.07 | 0.96 ± 0.08 |  |  |  | 
CCCO [propan-1-ol] + CCCCn1cc[n+](C)c1.F[P-](F)(F)(F)(F)F | 5.53 ± 0.38 | 4.14 ± 0.28 | 3.18 ± 0.22 | 2.45 ± 0.17 |  |  |  |  | 
CC(C)O [propan-2-ol] + CCCCCC[n+]1ccn(C)c1.O=S(=O)([N-]S(=O)(=O)C(F)(F)F)C(F)(F)F | 1.95 ± 0.15 | 1.56 and 1.53 | 1.17 and 1.15 | 1.08 and 1.02 |  |  |  |  | 
CC(C)O [propan-2-ol] + CCCCn1cc[n+](C)c1.COS(=O)(=O)[O-] |  | 0.94 ± 0.08 | 0.91 ± 0.07 | 0.88 ± 0.07 | 1.03 ± 0.08 |  |  |  | 
CC(C)O [propan-2-ol] + CCCCn1cc[n+](C)c1.F[P-](F)(F)(F)(F)F | 4.8 ± 0.33 | 3.64 ± 0.25 | 2.83 ± 0.19 | 2.25 ± 0.15 |  |  |  |  | 
